Each structure is given as a SMILES string.

Assay type in all cases: biochemical
The target in experiment [1] is T1, EcUPPS (Escherichia coli, UniProt P60472).
T1 construct: made in house; host or cells: E. coli
The experiment is described as follows: Prenyltransferase activity test, conversion of FPP with elongation substrate (MTP phosphate detection assay). The note with it: 5 µM E,E-FPP, 200 µM elongation substrate, 50 µM enzyme, room temperature. How it is done: (§1) Die Aktivität der Prenyltransferasen wurde hinsichtlich der Umsetzung von Farnesyldiphosphat (FPP) als Startersubstrat und Isopentenyldiphosphat (IPP), und Cl-BPP bzw. Br-BPP mit Hilfe des MTP-Phosphatdetektionsassays bestimmt.
(§2) Cl-BPP und jeweils 50 µM Enzym bei Raumtemperatur durchgeführt. […] Cl-BPP gezeigt werden. Als Negativkontrolle diente ein Ansatz ohne Enzym (nicht gezeigt).

Another experiment concerns the target T2, MtUPPS (Mycobacterium tuberculosis, UniProt P9WFF7).
T2 construct: poly-Histidin-Tag (His6) (N); made in house; host or cells: E. coli BL21 (DE3)
Described as above. The following applies: 5 µM E,E-FPP, 200 µM elongation substrate, 50 µM enzyme, room temperature. How it is done:
as §1, §2

The next experiment concerns the target T3, HpUPPS (Helicobacter pylori, UniProt P55984).
T3 construct: poly-Histidin-Tag (His6) (N); made in house; host or cells: E. coli BL21 (DE3)
The description is as above. The note with it: 5 µM E,E-FPP, 200 µM elongation substrate, 50 µM enzyme, room temperature. How it is done: as §1, §2

The target in experiment [2] is T4, Thermococcus kodakaraensis cis-Prenyltransferase (ThkCPT) (Thermococcus kodakarensis, UniProt Q5JGE1).
T4 construct: made in house; host or cells: E. coli
T4 sequence (Q5JGE1 1-264): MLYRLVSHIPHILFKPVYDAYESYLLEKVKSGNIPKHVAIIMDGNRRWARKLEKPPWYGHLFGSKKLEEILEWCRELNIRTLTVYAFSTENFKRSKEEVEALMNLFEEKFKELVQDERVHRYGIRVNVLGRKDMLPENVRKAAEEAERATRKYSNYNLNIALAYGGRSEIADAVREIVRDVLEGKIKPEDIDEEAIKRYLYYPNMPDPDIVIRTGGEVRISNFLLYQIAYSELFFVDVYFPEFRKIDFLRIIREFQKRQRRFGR
The experiment can be described thus: MTP phosphate detection assay (diphosphate release, BIOMOL Green), substrate kinetics. The note with it: elongation substrate varied, starter FPP 10 µM, room temperature. How it is done:
Cis-Prenyltransferasen entlassen während der Reaktion Diphosphat nach jedem Kondensationsschritt. Dies ist der Ansatzpunkt, der gewählt wurde, um unabhängig von der Art des Produktes den Grundumsatz zu detektieren. […] Die Dreifachbestimmungen der Enzymreaktionen wurden mit 100 µL BIOMOL Green™ Detektionsreagenz gestoppt und nach weiteren 20 min in einem Mikrotiterplattenspektrophotometer bei 620 nm gemessen. Zur Kontrolle erfolgte für jede Substratkonzentration eine Messung mit denaturiertem Enzym zu den unterschiedlichen Zeitpunkten um Selbsthydrolyse der Substrate zu berücksichtigen. Zur Quantifizierung wurde eine Pi-Standardkurve in Doppelbestimmung mitgeführt. Die Verdünnung des KPi-Standards erfolgte in Assaypuffer, wurde mit 100 µL BIOMOL Green™ Detektionsreagenz nach Ablauf der Enzymreaktion in den Test-Wells detektiert und zeitgleich nach weiteren 20 min bei 620 nm gemessen. Eine lineare Beziehung zwischen A620 nm und Pi-Konzentration ermöglichte eine Quantifizierung zwischen 80 µM-0 µM Pi.
Die Bestimmung der FPP-Kinetiken der EcUPPS sowie der ThkCPT erfolgte unter analogen Bedingungen der Bestimmung von IPP. […] Die Enzymreaktion wurde nach 60 s, 120 s, 180 s, 300 s, 600 s, 900 s oder 1200 s durch Zugabe von 100 µL BIOMOL Green™ Detektionsreagenz gestoppt und wie oben beschrieben gemessen.
Die Assaybedingungen wurden wie in Beispiel 3 beschriebenen gewählt. […] Variation von 500 - 0 µM im Fall der Elongationssubstrate erfolgte konstant mit 10 µM FPP (jedes Homoallyldiphosphat möglich).
Zur Berechnung der Umsatzraten in nkat·mg^-1 wurde verwendet: ν0 = ((A620-ABlank)⋅1000)/(2⋅m⋅t⋅[E]) [formula] v0 Anfangsgeschwindigkeit der Diphosphathydrolyse (nkat·mg^-1) A620 Absorption bei 620 nm ABlank Absorption der Kontrolle bei 620 nm m Anstieg der Phosphatstandardkurve (µM^-1) t Dauer der Enzymreaktion (s) [E] Enzymkonzentration (mg·L^-1)
Die Auswertung erfolgte durch nicht-lineare Regression nach der Hill-Gleichung mit Sigma-Plot 11. […] Substratkonzentration (µM) h Hill-Koeffizient

Experiment [3] addresses T1, EcUPPS. The experiment is described as follows: Product chain length by HPLC with fluorescent starter substrate 110. The following applies: 10 µM EcUPPS, 110 as starter substrate, HPLC of hydrolysed products. How it is done:
Zur Bestimmung der Produktkettenlängen wurden 500 µL Enzymassays in MS-Gläschen durchgeführt. […] Die Extraktion der Polyprenyldiphosphate erfolgte mit 500 µL 1-Butanol. Die Butanolphase wurde in ein neues Glas überführt und unter Stickstoffstrom von dem Lösungsmittel befreit. Die Hydrolyse der Diphosphate zum Polyprenol erfolgte durch Zugabe von 200 µL Hydrolysepuffer (20% Isopropanol, 4,4 Units/mL saure Phophatase aus Kartoffeln, 0,1 % Triton X-100, 50 mM Natriumacetat (pH 4,7)) und wurde über Nacht bei 37 °C inkubiert. Die Polyprenole wurden mit 500 µL nHexan extrahiert und zur weiteren DC- oder HPLC-Analyse vorbereitet. Für DC-Experimente und LC/ESI-MS-Analysen wurde die nHexan-Phase in ein neues Glas überführt, das Lösungsmittel abgedampft und die Produkte erneut in 100 µL nHexan resuspendiert um eine Aufkonzentrierung zu erreichen. Für HPLC-Analysen mit 110 ((2E,6E)-8-O-(N-methyl-2-aminobenzoyl)-3,7-dimethyl-2,6-octandien-1-diphosphat) als Startersubstrat wurde die nHexan-Phase 1:3 verdünnt in das HPLC-System mittels Autosampler injiziert.
Die HPLC-Analyse der Polyprenole erfolgte an einer Anlage von Merck HITACHI D-7000, wobei als stationäre Phase eine YMC-ODS AQ (150 x 4 mm, 5 µm; YMC Europe GmbH, Dinslaken) Säule verwendet wurde. Die Elution erfolgte mit 1 mL·min^-1 und die Detektion bei 210 nm mit einem UV-VIS Detektor: Merck HITACHI L-7420. […]

T1 sequence (P60472 whole entry): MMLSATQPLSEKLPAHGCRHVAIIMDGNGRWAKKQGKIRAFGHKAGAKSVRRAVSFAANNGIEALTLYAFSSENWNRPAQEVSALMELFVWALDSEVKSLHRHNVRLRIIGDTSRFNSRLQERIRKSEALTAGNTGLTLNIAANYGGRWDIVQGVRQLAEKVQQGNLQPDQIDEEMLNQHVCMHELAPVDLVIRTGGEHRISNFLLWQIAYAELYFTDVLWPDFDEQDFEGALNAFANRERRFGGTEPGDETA
T2 sequence (P9WFF7 whole entry): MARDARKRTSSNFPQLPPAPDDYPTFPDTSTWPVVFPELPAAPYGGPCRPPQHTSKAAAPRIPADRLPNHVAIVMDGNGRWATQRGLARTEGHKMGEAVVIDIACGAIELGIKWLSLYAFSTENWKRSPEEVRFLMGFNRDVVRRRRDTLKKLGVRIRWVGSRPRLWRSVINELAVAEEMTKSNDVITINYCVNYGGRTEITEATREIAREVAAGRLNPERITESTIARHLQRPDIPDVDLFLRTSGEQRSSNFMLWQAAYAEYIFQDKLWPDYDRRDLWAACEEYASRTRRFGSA
T3 sequence (P55984 whole entry): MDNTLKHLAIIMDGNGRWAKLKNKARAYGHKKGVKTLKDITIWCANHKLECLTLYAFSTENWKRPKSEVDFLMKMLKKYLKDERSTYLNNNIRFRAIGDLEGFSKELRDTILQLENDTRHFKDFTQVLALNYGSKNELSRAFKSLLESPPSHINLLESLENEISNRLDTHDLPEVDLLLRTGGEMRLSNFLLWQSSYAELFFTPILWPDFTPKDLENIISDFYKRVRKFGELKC

Take `C=C(Cl)CCOP(=O)(O)OP(=O)(O)O` [Cl-BPP, 3-Chlor-3-Butenyldiphosphat]: the results for the “Aktivität (Umsetzung von FPP mit Elongationssubstrat)” value on EcUPPS [1], at MtUPPS and at HpUPPS were “höchste Aktivität”, “höchste Aktivität” and “im geringeren Maße”, respectively. Also, the kcat in experiment [2] is given as 0,0005 s^-1. Moreover, on EcUPPS [3], the “Kondensationsschritte / Elongationseinheiten” value amounted to 2.
